Where two headings read alike, the source gives them in different places.

Data set [1] deals with G. lamblia strain ATCC 30957. Kind of data set: Viability of Giardia lamblia trophozoite culture (trypan blue count). It counts as cell-based. Particulars: for IC50: trophozoites ATCC 30957, 48 h, 37 °C, read-out: IC50 G. lamblia; for Inhibition of growth of G. lamblia parasite culture: concentration not given. On the procedure:
Viability analysis was performed on G. lamblia strain ATCC 30957 grown in TYI-S-33 medium supplemented with 10% fetal bovine serum (FBS) and an antibiotic. Pre-culture was performed in 16 × 150 mm borosilicate tubes with a medium inoculated with 2 × 10^5 trophozoites and incubated at 37 °C for 48 h. For the recovery of the trophozoites, the vial was incubated in ice for 8 min and centrifuged for 6 min at 2000 rpm. The concentrated trophozoites were suspended in 1 mL of phosphate-buffered saline (PBS), and the number of trophozoites was counted by placing a 1:1 volume ratio of cell culture and trypan blue dye (4 g/L); then, a homogeneous drop of the mixture was taken and placed in the Neubauer chamber, and the total cells were counted.
The curves were plotted for concentrations of 0–50 µM of each compound. The assay was performed by placing 1.5 × 10^5 cells in 1.5 mL microcentrifuge tubes with a supplemented medium and different concentrations of each compound (0–50 µM). The negative control was performed under the same conditions without a compound, and the drugs NTZ and MTZ were used as positive controls. The samples were incubated for 48 h at 37 °C. At the end of the incubation, the cell viability count was performed using the trypan blue technique. The viability calculation was performed following the formula nv/(nv + nm), where nv represents the live cells and nm represents the dead cells; the viability value obtained was expressed as a percentage. The IC50 value of each compound was determined using the IC50 Calculator software (https://www.aatbio.com/tools/ic50-calculator).

The test system of data set [2] is HT-29 cells. Kind of data set: Cytotoxicity, XTT viability assay, HT-29. Particulars: for Selectivity index (CC50/IC50) HT-29: CC50 HT-29 / IC50 trophozoite ATCC strain 30957. On the procedure: (§1) The cytotoxicity assay was performed to evaluate the effect of the selected compounds on human cells. Colon cells were used because they are cell lines like those present in the microenvironment where G. lamblia colonizes, which is the small intestine of the host. The assay was performed using the human cell lines Caco-2 (ATCC HTB-37) and HT-29 (ATCC […]). Cell viability was determined using the Cell Proliferation Kit II (XTT, St. Louis, MO, EE. UU.). A cell suspension of 2 × 10^3 cells/mL was prepared in Dulbecco’s modified Eagle’s medium (DMEM) supplemented with 10% inactivated fetal bovine serum and an antibiotic (1% penicillin/streptomycin, 5000 U/mL, in a volume of 100 µL). The suspension was added to a 96-well plate. The plates were incubated for 24 h at 37 °C in a 5% CO2 atmosphere. […] The cells were incubated for 48 h at 37 °C in a 5% CO2 atmosphere. Cell viability was determined using the following steps. The medium in each well was replaced with 100 µL of fresh medium, and 50 µL of XTT labeling mix was added per well. The reaction was incubated for four hours at 37 °C and 5% CO2. After incubation, the absorbance of the samples on the plate was measured at 450 nm. Each compound was assayed in triplicate in three independent experiments. CC50 values (μM) were determined using the nonlinear regression function of GraphPad Prism version 8 for Windows.
On the technique in general: Formazan colour is commonly taken as a measure of viable cells.

Data set [3] is described as follows: in vitro. Particulars: human. The protocol: as §1
In data set [4] the test system is HT-29 cells. Also on record: method as in PMID 38893461. Particulars: cited from earlier work.
The test system of data set [5] is Caco-2 cells. The arrangement: method as in PMID 38893461. The conditions noted are these: cited from earlier work.
For data set [6], the system named is G. lamblia strain resistant to nitazoxanide. Kind of data set: Giardicidal activity in nitazoxanide-resistant strain (trypan blue count). It counts as cell-based. Particulars: Giardia duodenalis, 48 h, read-out: IC50 G. lamblia (NTZ Resistant). The protocol:
A pre-culture at confluence was used as a starting point, and a concentration–response curve was plotted using an initial compound concentration of 25 μM in a final volume of 1.5 mL of TYI-S-33 medium, followed by serial dilutions of the compound. Each treatment was inoculated with 1.5 × 10^5 trophozoites and incubated for 48 h at 37 °C. At the end of the incubation, the number of trophozoites was determined using the trypan blue assay and by counting in a Neubauer chamber. The viability percentage at each compound concentration was calculated using the negative control as a reference.

Data set [7] is described as follows: Cytotoxicity, XTT viability assay, HT-29. The conditions noted are these: human, CC50 HT-29, 48 h, XTT. The protocol: as §1
In data set [8] the test system is Caco-2 and HT-29 cells. Put plainly: Cytotoxicity, XTT viability assay, stated for both cell lines. The data set is classed as cell-based, human. Particulars: 125 µM, 48 h. On the procedure:
The suspension was added to a 96-well plate. […] Cell viability was determined using the following steps.

Data set [9] has as its system Giardia lamblia trophozoites (strain ATCC 30957) gene expression. Put plainly: Gene expression in trophozoites by RT-qPCR. It counts as cell-based. The conditions noted are these: IC50 of each compound, 48 h. The protocol:
To determine the alterations in the parasite’s metabolism and cellular processes induced by the compounds, the expression levels of various genes encoding metabolic, structural, and oxidative stress response proteins were evaluated. G. lamblia strain ATCC 30957 was grown by following previously established culture parameters.
The culture tube was incubated on ice for 15 min and then centrifuged at 2000 rpm for 6 min to concentrate the cell pellet. Cell counting was performed using the trypan blue method. A 500 µL volume of Trizol ® was added, and it was gently homogenized; then, 60 µL of chloroform was added, and it was homogenized for 10 s with a vortex and incubated on ice for 3 min. Afterward, it was centrifuged at 12,000 rpm for 10 min, the aqueous phase was transferred to a new tube, 200 µL of isopropanol was added, and it was incubated for 3 h on ice. The sample was then centrifuged for 10 min at 12,000 rpm, and the supernatant was discarded. A 600 µL volume of ethanol (70%) was added, homogenized, and centrifuged. In the end, the supernatant was removed, and the sample was centrifuged again to dry the excess alcohol. The pellet was dried. Finally, it was resuspended in 25 µL of sterile MilliQ water. The concentration and purity of the extracted RNA were determined using the NanoDrop® Spectrophotometer ND-1000 (NanoDrop Technologies, Wilmington, DE, USA). […] RNA purity and integrity were confirmed using 0.8% (w/v) agarose gels under denaturing conditions.
The synthesis of cDNA was carried out with […] of purified RNA, and 1 U of […] was added (Thermo Thermo Fisher Scientific, Waltham, MA, USA). First-strand cDNA synthesis was carried out using 1 μg of DNase-treated RNA, combined with a 10 mM dNTP mix, oligo(dT)18 primer, and RevertAid reverse transcriptase (Thermo Scientific) in a final reaction volume of 20 μL. The reaction mixture was incubated at 42 °C for 60 min, followed by heat inactivation at 70 °C for 10 min. The synthesized cDNA was stored at −20 °C until further use. The level of purity and concentration of the cDNA were determined using the NanoDrop® Spectrophotometer ND-1000 (NanoDrop Technologies, Wilmington, DE, USA).
Specific oligonucleotides were designed to determine the expression levels of the gene’s phosphofructokinase, pyruvate kinase, glucose-6-phosphate dehydrogenase::6-phosphogluconolactonase, 6-phosphogluconate dehydrogenase, and transketolase. The design was based on gene sequences available in the National Center for Biotechnology Information (NCBI) database, adhering to the following criteria: an oligonucleotide length of 18–20 bp, a melting temperature (Tm) of 61 °C, a GC content of approximately 40%, and an amplicon size between 80 and 200 bp (Table 4). The oligonucleotides were synthesized by the Sequencing and Synthesis Unit of the Institute of Biotechnology, UNAM.
Additionally, previously reported primers that were used for the gene expression analysis of G. lamblia were also obtained (Table 4). These primers target genes encoding surface structural protein, giardin, actin, pyruvate:ferredoxin oxidoreductase, pyruvate phosphate dikinase, NADH oxidase, triose phosphate isomerase, glyceraldehyde-3-phosphate dehydrogenase, and Aldolase.
Amplification was performed using a StepOne™ Real-Time PCR System and the Fast SYBR® Green Master Mix kit (Applied Biosystems, Foster City, CA, USA) under the following conditions: an initial denaturation at 95 °C for 30 s, followed by 40 cycles of 95 °C for 3 s and 60 °C for 30 s. The melt curve analysis was conducted post-amplification by gradually increasing the temperature from 60 °C to 95 °C. […] Normalization was performed using the geometric mean of cycle threshold (Ct) values, and the relative expression levels of the target genes were calculated using the 2^−ΔΔCt method. Each reaction was performed in five replicates for all analyzed genes and strains. Results are presented as mean values ± standard deviation (SD).
(In qPCR the cycle at which signal appears reflects the starting amount.)

Data set [10] concerns G6PD::6PGL enzyme of G. lamblia. The conditions noted are these: cited from earlier work.
[11] abbreviates: Giardia duodenalis, ATCC30957, 48 h.
[12] abbreviates: ratio of IC50 values, ATCC strain.

Usually IC50 stands for the concentration that inhibits the measured activity by half. What is called CC50 is the concentration at which the toxic effect on the cells reaches its halfway point. On to `Cc1ncc([N+](=O)[O-])n1CCO` [MTZ, metronidazole, reference compound], for which the IC50 in data set [1] (setting [11]) was determined as 4.3 µM; in data set [1] it was 3.4 µM. Besides, the “Selectivity index (CC50/IC50) HT-29” value in data set [2] was 161. Moreover, the selectivity ratio at 48 h in data set [3] (Caco-2) came out at 160. Moreover, the figures for the CC50 in data set [4] and in [5] were 550 µM and 545 µM, respectively.

With `CCCCOc1ccc(NC(=O)Nc2ncc([N+](=O)[O-])s2)cc1` [CNZ-8], in data set [1] (setting [11]), the IC50 is less than 15 µM. For the same molecule, in data set [1], the “Inhibition of growth of G. lamblia parasite culture” value is recorded as “more than 98%” and the IC50 was 11.1 µM. In [6], the concentration for half-maximal inhibition (IC50) turned out to be 13.7 µM. It took 622 µM to reach half-maximal cytotoxicity in data set [7] (HT-29 cells) (CC50 at 48 h). Also, the “Selectivity index (CC50/IC50) HT-29” value in data set [2] was 56. The selectivity ratio at 48 h in data set [3] (Caco-2) came to 57. The molecule also returned a CC50 at 48 h in data set [3] (Caco-2, CC50 Caco-2, 48 h, XTT) of 633 µM. In data set [8], the “Decrease of cell viability” value is given as “up to 20%”. Further, in [9], the “G6PD::6PGL gene expression vs control” value is 19.4 fold change; the “GIA (giardin) gene expression, increase vs control” value (from here on “GIA … increase vs control”) stood at 12.5 times; the “NADHox gene expression, increase vs control” value came out at 4.2 times; the “PFK gene expression vs control” value is “reduction”. In data set [9], the “PPDK gene expression vs control” value is 8.2 fold change and the “TKT gene expression, decrease vs control” value is reported as 1.4 times. Moreover, the “Inhibition of the G6PD::6PGL enzyme (in words)” value (“Inhibition … (in words)” below) in [10] is “inhibitors of the G6PD enzyme”.

Turning to `O=C(Nc1ncc([N+](=O)[O-])s1)c1cccc([N+](=O)[O-])c1` [FLP-8, 3-Nitro-N-(5-nitro-1,3-thiazol-2-yl)benzamide], the “Decrease of parasite viability” value in data set [1] (25 µM) is given as 100%. Further, the “Inhibition of growth of G. lamblia parasite culture” value in data set [1] is on record as “more than 98%”. Also, in data set [1] (setting [12]), the “Relative potency compared with MTZ” value came to 34 times and the “Relative potency compared with NTZ” value is 43 times. In addition, the IC50 in [6] turned out to be 1.19 µM. For the same molecule, the CC50 at 48 h in [7] is 43.6 µM. The “Selectivity index (CC50/IC50) HT-29” value in [2] amounted to 436. Besides, the CC50 in data set [2] (read-out: CC50 HT-29, 48 h, XTT) worked out at 43.7 µM. In data set [3] (Caco-2), the midpoint of cytotoxicity, the CC50 at 48 h, lay at 46 µM and the selectivity ratio at 48 h stood at 460. In data set [8], the “Decrease of cell viability” value is no more than 50%. Also, in data set [9], the “GIA … increase vs control” value is “did not show changes in expression”; the “NADHox gene expression, increase vs control” value is 1.7 times; the “PFK gene expression vs control” value stood at 2.7 fold change; the “TKT gene expression, decrease vs control” value turned out to be 1.7 times. Further, the “VSP gene expression, increase vs control” value in data set [9] amounted to 2.4 times. In [10], the “Inhibition … (in words)” value is recorded as “not inhibitors of the enzyme”.

Consider `O=C(Nc1ccc([N+](=O)[O-])cc1)Nc1ncc([N+](=O)[O-])s1` [CNZ-7], for which the “Inhibition of growth of G. lamblia parasite culture” value in data set [1] is “more than 98%”. In addition, the IC50 in data set [6] stood at 2.5 µM. The molecule also displayed a CC50 at 48 h in data set [7] of 529 µM. Moreover, the “Selectivity index (CC50/IC50) HT-29” value in [2] came to 100. In data set [3] (Caco-2), the CC50 at 48 h stood at 640 µM and the selectivity ratio at 48 h was found to be 121. Further, the “Decrease of cell viability” value in data set [8] is on record as “up to 20%”. Moreover, in [9], the “ACT (actin) gene expression, increase vs control” value was determined as 2.1 times; the “G6PD::6PGL gene expression vs control” value worked out at 11.4 fold change; the “GIA … increase vs control” value is reported as 2.6 times; the “NADHox gene expression, increase vs control” value worked out at 1.7 times. Further, in data set [9], the “PFK gene expression vs control” value was “reduction”; the “PFOR gene expression vs control” value was 7.4 fold change; the “PPDK gene expression vs control” value is listed as 15.8 fold change; the “TKT gene expression, increase vs control” value is given as 1.9 times. The “Inhibition … (in words)” value in data set [10] was “inhibitors of the G6PD enzyme”.

Values taken from article PMC12111156, “Nitazoxanide Analogs: Synthesis, In Vitro Giardicidal Activity, and Effects on Giardia lamblia Metabolic Gene Expression” (International Journal of Molecular Sciences, 2025).
